Measurements published in PubChem BioAssay (NCI).
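Each compound was tested at five concentrations against cells in 96-well plates for 48 hours. GI50 marks 50% less growth. At the TGI there is no net growth.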

Assays:
Experiment in all cases: NCI anticancer screen, dose series, 48 h
[1] = system: SNB-19 CNS
[2] = system: UACC-62 melanoma
[3] = system: SF-539 CNS
[4] = system: HCT-116 colon
[5] = system: K-562 leukemia
[6] = system: SK-MEL-28 melanoma
[7] = system: SNB-75 CNS
[8] = system: OVCAR-3 ovarian
[9] = system: UACC-257 melanoma
[10] = system: SR leukemia

Structure (SMILES) | TGI [1] [µM] | TGI [2] [µM] | TGI [3] [µM] | TGI [4] [µM] | TGI [5] [µM] | TGI [6] [µM] | TGI [7] [µM] | TGI [8] [µM] | TGI [9] [µM] | TGI [10] [µM] | GI50 [1] [µM] | GI50 [3] [µM] | GI50 [4] [µM] | GI50 [5] [µM] | GI50 [6] [µM] | GI50 [7] [µM] | GI50 [8] [µM] | GI50 [9] [µM] | GI50 [10] [µM]
CC(C)(O)CO/N=C1\C(c2c(O)[nH]c3ccccc23)=Nc2ccccc21 | > 52.6 | 2.66 | 10.2 | > 100 | > 100 | > 46.2 | 9.72 | 5.95 | > 96.4 | > 100 |  |  |  |  |  |  |  |  | 
c1ccc(CCN2CCOCC2)nc1 | > 100 | > 100 |  | > 100 | > 100 | > 100 |  | > 100 | > 100 | > 100 |  |  |  |  |  |  |  |  | 
c1ccc2sc(C3(N4CCC5(CC4)OCCO5)CCCCC3)cc2c1 | > 100 | > 100 | > 100 | > 100 | > 100 | > 100 | > 100 | > 100 | > 100 | > 100 |  |  |  |  |  |  |  |  | 
NC(=O)Nc1ccc(C(=O)NCCCNC(=O)c2ccc(NC(N)=O)cc2)cc1 | > 100 | > 100 | > 100 | > 100 | > 100 | > 100 | > 100 |  | > 100 | > 100 |  |  |  |  |  |  |  |  | 
CCCC1=C(C(=O)OCC)C(c2ccccc2OC)C(C#N)=C(N)O1 (centres undefined) | > 100 |  | > 100 | > 100 | > 100 | 79.4 | > 100 | > 100 | > 100 | > 100 | > 100 | 39.8 | 31.8 | 31.9 | 26.3 | 32.2 | 67.1 | 65.5 | 29.1
COc1ccccc1/C=C/c1c(N)ncnc1Nc1cccc(Cl)c1 | 47.1 | 33.3 | 35.6 | 86.8 | > 100 | 36.4 | 23.6 | 59.5 | 35 | > 100 |  |  |  |  |  |  |  |  | 
CN=C(N)/N=C(\N)Nc1cc2ccccc2c2ccccc12 | 30.9 | 28.2 | 29.4 | 26 | 44.5 | 34.1 | 27.6 | 35.8 | 30.9 | 47.8 |  |  |  |  |  |  |  |  | 
O=C1/C(=C/c2ccc(Cl)cc2)N=C(c2ccccc2)N1c1nc2c(Cl)cc(Cl)cc2s1 | > 100 | > 100 | 46.1 | 50.8 | > 100 | > 100 | 64.9 | 50.9 | > 100 | 42.5 |  |  |  |  |  |  |  |  | 
COc1c(O)c(O)c2c(c1O)C(=O)c1cc(C)cc(O)c1C2=O | > 100 | 54.5 | > 100 | > 100 | 98.5 | > 100 | > 86.5 | > 100 | > 100 | > 100 |  |  |  |  |  |  |  |  | 
CCOC(=O)C(=O)Nc1c(CC)cccc1C(C)CC (centres undefined) | > 100 | > 100 | > 100 | > 100 | > 100 | > 100 | > 100 | > 100 | > 100 | > 100 |  |  |  |  |  |  |  |  | 
Nc1cccc2c1C1=NNC(=O)CC1C2 (centres undefined) | > 100 | > 100 | > 100 | > 100 | > 100 | > 100 | > 100 | > 100 | > 100 |  |  |  |  |  |  |  |  |  | 
O=C1C(c2c(O)[nH]c3ccccc23)=Nc2ccc(Br)cc21 | 76.2 | 54 |  | > 100 | > 100 | > 100 | 34.9 | > 100 | > 100 | > 100 |  |  |  |  |  |  |  |  | 
Cc1c(NC(=O)c2cc([N+](=O)[O-])cc([N+](=O)[O-])c2)c(=O)n(-c2ccccc2)n1C | > 100 | > 100 | > 100 | > 100 | > 100 | > 100 |  | > 100 | > 100 | > 100 |  |  |  |  |  |  |  |  | 
C[C@H](N[C@H]1CCC[C@]1(O)C#Cc1ccc2c(c1)OCO2)c1ccccc1 | > 25 | > 25 |  |  | > 25 | > 25 | > 25 |  | > 25 | > 25 |  |  |  |  |  |  |  |  | 
